Measurements reported in patent US20260297081A1, “COMPOUNDS AND METHODS OF TREATING CANCERS” (Cullgen Inc., priority 2023, published 2026).
pIC50: −log10 of the molar value. Like-named read-outs stand apart in the source and are kept apart here.

Test system: MCF7 cells
Assay: Anti-proliferation (viability) of MCF7 cells (Table 7, FIG. 2B)
Assay type: cell-based
Details: 3-6 days, 10-point serial dilution, read-out: GI IC50 in MCF-7

pIC50 (Homo sapiens, MCF7, MCF7 cells) | Compound | pIC50 (MCF7 cells)
< 7.00 | CC(=O)c1c(C)c2cnc(Nc3ccc(N4CCC5(CC4)CC5C(=O)NC4CCC(Nc5nc(NC(C)C)ccc5C(=O)Nc5ccc(N(C)C)nn5)C4)cn3)nc2n(C2CCCC2)c1=O (stereo not drawn) [CPD-417, 6-(6-((6-acetyl-8-cyclopentyl-5-methyl-7-oxo-7,8-dihydropyrido[2,3-d]pyrimidin-2-yl)amino)pyridin-3-yl)-N-(3-((3-((6-(dimethylamino)pyridazin-3-yl)carbamoyl)-6-(isopropylamino)pyridin-2-yl)amino)cyclopentyl)-6-azaspiro[2.5]octane-1-carboxamide] | 
< 7.00 | CC(=O)c1c(C)c2cnc(Nc3ccc(CN4CCN(CC(=O)N5CCC(Nc6nc(NC(C)C)ccc6C(=O)Nc6cn(C)c(C7CC7)n6)CC5)CC4)cn3)nc2n(C2CCCC2)c1=O [CPD-420, 2-((1-(2-(4-((6-((6-acetyl-8-cyclopentyl-5-methyl-7-oxo-7,8-dihydropyrido[2,3-d]pyrimidin-2-yl)amino)pyridin-3-yl)methyl)piperazin-1-yl)acetyl)piperidin-4-yl)amino)-N-(2-cyclopropyl-1-methyl-1H-imidazol-4-yl)-6-(isopropylamino)nicotinamide] | 
< 7.00 | CC(=O)c1c(C)c2cnc(Nc3ccc(CN4CCC(CC(=O)N5CCC(Nc6nc(NC(C)C)ccc6C(=O)Nc6ccc(N(C)C)nn6)CC5)CC4)cn3)nc2n(C2CCCC2)c1=O [CPD-392, 2-((1-(2-(1-((6-((6-acetyl-8-cyclopentyl-5-methyl-7-oxo-7,8-dihydropyrido[2,3-d]pyrimidin-2-yl)amino)pyridin-3-yl)methyl)piperidin-4-yl)acetyl)piperidin-4-yl)amino)-N-(6-(dimethylamino)pyridazin-3-yl)-6-(isopropylamino)nicotinamide] | 
< 7.00 | CC(=O)c1c(C)c2cnc(Nc3ccc(C4CCC(NCC(=O)N5CCC(Nc6nc(NC(C)C)ccc6C(=O)Nc6ccc(N(C)C)nn6)CC5)CC4)cn3)nc2n(C2CCCC2)c1=O (stereo not drawn) [CPD-389, 2-((1-((4-(6-((6-acetyl-8-cyclopentyl-5-methyl-7-oxo-7,8-dihydropyrido[2,3-d]pyrimidin-2-yl)amino)pyridin-3-yl)cyclohexyl)glycyl)piperidin-4-yl)amino)-N-(6-(dimethylamino)pyridazin-3-yl)-6-(isopropylamino)nicotinamide] | 
< 7.00 | CC(=O)c1c(C)c2cnc(Nc3ccc(N4CCN(CC(=O)NC5CC6(C5)CC(Nc5nc(C(C)O)ccc5C(=O)Nc5cn(C)c(C7CC7)n5)C6)CC4)cn3)nc2n(C2CCCC2)c1=O (stereo not drawn) [CPD-349, 2-((6-(2-(4-(6-((6-acetyl-8-cyclopentyl-5-methyl-7-oxo-7,8-dihydropyrido[2,3-d]pyrimidin-2-yl)amino)pyridin-3-yl)piperazin-1-yl)acetamido)spiro[3.3]heptan-2-yl)amino)-N-(2-cyclopropyl-1-methyl-1H-imidazol-4-yl)-6-(1-hydroxyethyl)nicotinamide] | 
< 7.00 | CC(=O)c1c(C)c2cnc(Nc3ccc(N4CC5(CN(CC(=O)N6CCC(Nc7nc(NC(C)C)ccc7C(=O)Nc7ccc(N(C)C)nn7)C6)C5)C4)cn3)nc2n(C2CCCC2)c1=O (stereo not drawn) [CPD-424, 2-((1-(2-(6-(6-((6-acetyl-8-cyclopentyl-5-methyl-7-oxo-7,8-dihydropyrido[2,3-d]pyrimidin-2-yl)amino)pyridin-3-yl)-2,6-diazaspiro[3.3]heptan-2-yl)acetyl)pyrrolidin-3-yl)amino)-N-(6-(dimethylamino)pyridazin-3-yl)-6-(isopropylamino)nicotinamide] | 
> 7.30 | CC(=O)c1c(C)c2cnc(Nc3ccc(N4CCC5(CC4)CC5C(=O)NC4CC5(C4)CC(Nc4nc(NC(C)C)ccc4C(=O)Nc4cc(C)n(C)n4)C5)cn3)nc2n(C2CCCC2)c1=O (stereo not drawn) [CPD-451, 6-(6-((6-acetyl-8-cyclopentyl-5-methyl-7-oxo-7,8-dihydropyrido[2,3-d]pyrimidin-2-yl)amino)pyridin-3-yl)-N-(6-((3-((1,5-dimethyl-1H-pyrazol-3-yl)carbamoyl)-6-(isopropylamino)pyridin-2-yl)amino)spiro[3.3]heptan-2-yl)-6-azaspiro[2.5]octane-1-carboxamide] | 
> 7.30 | CC(=O)c1c(C)c2cnc(Nc3ccc(N4CCN(C(C)CC(=O)NC5CC(Nc6nc(NC(C)C)ccc6C(=O)Nc6ccc(N(C)C)nn6)C5)CC4)cn3)nc2n(C2CCCC2)c1=O (stereo not drawn) [CPD-365, 2-((3-(3-(4-(6-((6-acetyl-8-cyclopentyl-5-methyl-7-oxo-7,8-dihydropyrido[2,3-d]pyrimidin-2-yl)amino)pyridin-3-yl)piperazin-1-yl)butanamido)cyclobutyl)amino)-N-(6-(dimethylamino)pyridazin-3-yl)-6-(isopropylamino)nicotinamide] | 
< 7.00 | CNc1ccc(C(=O)Nc2cn(C)c(C(C)(C)O)n2)c(NC2CC3(CC(NC(=O)CN4CCN(c5ccc(Nc6ncc7c(C)c(C(C)=O)c(=O)n(C8CCCC8)c7n6)nc5)CC4)C3)C2)n1 (stereo not drawn) [CPD-340, 2-((6-(2-(4-(6-((6-acetyl-8-cyclopentyl-5-methyl-7-oxo-7,8-dihydropyrido[2,3-d]pyrimidin-2-yl)amino)pyridin-3-yl)piperazin-1-yl)acetamido)spiro[3.3]heptan-2-yl)amino)-N-(2-(2-hydroxypropan-2-yl)-1-methyl-1H-imidazol-4-yl)-6-(methylamino)nicotinamide] | 
< 7.00 | CNc1ccc(C(=O)Nc2ccc(N(C)C)nn2)c(NC2CCN(C(=O)C3CC4(CCN(c5ccc(Nc6ncc7c(C)c(C(C)=O)c(=O)n(C8CCCC8)c7n6)nc5)CC4)C3)CC2)n1 [CPD-329, 2-((1-(7-(6-((6-acetyl-8-cyclopentyl-5-methyl-7-oxo-7,8-dihydropyrido[2,3-d]pyrimidin-2-yl)amino)pyridin-3-yl)-7-azaspiro[3.5]nonane-2-carbonyl)piperidin-4-yl)amino)-N-(6-(dimethylamino)pyridazin-3-yl)-6-(methylamino)nicotinamide] | 
< 7.00 | CC(=O)c1c(C)c2cnc(Nc3ccc(N4CCC(N5CC(C(=O)N6CCC(Nc7nc(NC(C)C)ccc7C(=O)Nc7ccc(N(C)C)nn7)CC6)C5)CC4)cn3)nc2n(C2CCCC2)c1=O [CPD-390, 2-((1-(1-(1-(6-((6-acetyl-8-cyclopentyl-5-methyl-7-oxo-7,8-dihydropyrido[2,3-d]pyrimidin-2-yl)amino)pyridin-3-yl)piperidin-4-yl)azetidine-3-carbonyl)piperidin-4-yl)amino)-N-(6-(dimethylamino)pyridazin-3-yl)-6-(isopropylamino)nicotinamide] | 
7.00 to 7.30 | CC(=O)c1c(C)c2cnc(Nc3ccc(N4CCN(CC(=O)NC(C)(C)C5CC(Nc6nc(NC(C)C)ccc6C(=O)Nc6cc(C)n(C)n6)C5)CC4)cn3)nc2n(C2CCCC2)c1=O (stereo not drawn) [CPD-387, 2-((3-(2-(2-(4-(6-((6-acetyl-8-cyclopentyl-5-methyl-7-oxo-7,8-dihydropyrido[2,3-d]pyrimidin-2-yl)amino)pyridin-3-yl)piperazin-1-yl)acetamido)propan-2-yl)cyclobutyl)amino)-N-(1,5-dimethyl-1H-pyrazol-3-yl)-6-(isopropylamino)nicotinamide] | 
> 7.30 | CC(=O)c1c(C)c2cnc(Nc3ccc(N4CCC(N(C)CC(=O)N5CCC(Nc6nc(NC(C)C)ccc6C(=O)Nc6ccc(N(C)C)nn6)C5)CC4)cn3)nc2n(C2CCCC2)c1=O (stereo not drawn) [CPD-426, 2-((1-(N-(1-(6-((6-acetyl-8-cyclopentyl-5-methyl-7-oxo-7,8-dihydropyrido[2,3-d]pyrimidin-2-yl)amino)pyridin-3-yl)piperidin-4-yl)-N-methylglycyl)pyrrolidin-3-yl)amino)-N-(6-(dimethylamino)pyridazin-3-yl)-6-(isopropylamino)nicotinamide] | 
7.00 to 7.30 | [2H]C([2H])([2H])Nc1ccc(C(=O)Nc2ccc(N(C)C)nn2)c(NC2CC3(CC(NC(=O)C(C)N4CCN(c5ccc(Nc6ncc7c(C)c(C(C)=O)c(=O)n(C8CCCC8)c7n6)nc5)CC4)C3)C2)n1 (stereo not drawn) [CPD-438, 2-((6-(2-(4-(6-((6-acetyl-8-cyclopentyl-5-methyl-7-oxo-7,8-dihydropyrido[2,3-d]pyrimidin-2-yl)amino)pyridin-3-yl)piperazin-1-yl)propanamido)spiro[3.3]heptan-2-yl)amino)-N-(6-(dimethylamino)pyridazin-3-yl)-6-((methyl-d3)amino)nicotinamide] | 
7.00 to 7.30 | CC(=O)c1c(C)c2cnc(Nc3ccc(N4CC5(CN(CC(=O)N6CC7(CC(Nc8nc(NC(C)C)ccc8C(=O)Nc8ccc(N(C)C)nn8)C7)C6)C5)C4)cn3)nc2n(C2CCCC2)c1=O [CPD-423, 2-((2-(2-(6-(6-((6-acetyl-8-cyclopentyl-5-methyl-7-oxo-7,8-dihydropyrido[2,3-d]pyrimidin-2-yl)amino)pyridin-3-yl)-2,6-diazaspiro[3.3]heptan-2-yl)acetyl)-2-azaspiro[3.3]heptan-6-yl)amino)-N-(6-(dimethylamino)pyridazin-3-yl)-6-(isopropylamino)nicotinamide] | 
< 7.00 | CNc1ccc(C(=O)Nc2ccc(N(C)C)nn2)c(NCC2(F)CN(C(=O)CN3CCN(c4ccc(Nc5ncc6c(C)c(C(C)=O)c(=O)n(C7CCCC7)c6n5)nc4)CC3)C2)n1 [CPD-344, 2-(((1-(2-(4-(6-((6-acetyl-8-cyclopentyl-5-methyl-7-oxo-7,8-dihydropyrido[2,3-d]pyrimidin-2-yl)amino)pyridin-3-yl)piperazin-1-yl)acetyl)-3-fluoroazetidin-3-yl)methyl)amino)-N-(6-(dimethylamino)pyridazin-3-yl)-6-(methylamino)nicotinamide] | 
 | CNc1ccc(C(=O)Nc2ccc(N(C)C)nn2)c(NC2CC(C(=O)N3CCC(N4CCN(c5ccc(Nc6ncc7c(C)c(C(C)=O)c(=O)n(C8CCCC8)c7n6)nc5)CC4)CC3)C2)n1 (stereo not drawn) [CPD-334] | < 7.00
< 7.00 | CNc1ccc(C(=O)Nc2cc(C)n(C3CC3)n2)c(NC2CC3(CC(NC(=O)CN4CCN(c5ccc(Nc6ncc7c(C)c(C(C)=O)c(=O)n(C8CCCC8)c7n6)nc5)CC4)C3)C2)n1 (stereo not drawn) [CPD-315, 2-((6-(2-(4-(6-((6-acetyl-8-cyclopentyl-5-methyl-7-oxo-7,8-dihydropyrido[2,3-d]pyrimidin-2-yl)amino)pyridin-3-yl)piperazin-1-yl)acetamido)spiro[3.3]heptan-2-yl)amino)-N-(1-cyclopropyl-5-methyl-1H-pyrazol-3-yl)-6-(methylamino)nicotinamide] | 
